Assay results: patent publication US20100168079A1 (priority 2008, published 2010)

Biological target: T1, human S1P1 receptors (Homo sapiens, UniProt P21453)
T1 construct: myc (N); expressed in transfected cells; host or cells: HeLa (human cervix carcinoma, ATCC CCL2), HeLa-S1P1/Gα16 cell clone 1
Assay: Human S1P1 Receptor Calcium FLIPR Antagonist Assay (HeLa Gα16 S1P1)
Format: cell-based
Settings: relative antagonism of Ca2+ signal evoked by probing agonist GNF-AC-1 at EC80; HeLa-S1P1/Gα16 cells
Method: Human S1P1 Receptor Calcium FLIPR Antagonist Assay
The cells are plated in 384 well black plates (10′000 cells per well). […] After washing, the cells are transferred to the FLIPR. The test compounds are added at different concentrations […]) in HBSS in the presence of 0.1% BSA and changes in fluorescence are recorded (indication of agonism). The probing agonist is added 20-30 minutes afterwards to the wells at a concentration giving 80% of the maximal activity (EC80). After each addition, time points are collected as follows: 20 time points (2 seconds) before the addition of the agonist (Fmin) and 60 time points (1 or 2 seconds) after the addition of the probing agonist. This allows the determination of the maximal fluorescence (Fmax). The ratio (Fmax-Fmin)/Fmin is plotted against the log of the concentration of the test compounds and the IC50 (relative antagonism) is calculated using the XLfit-4 software. […] A concentration-response curve of the probing agonist is determined on each plate in parallel.

T1 sequence (P21453 whole entry): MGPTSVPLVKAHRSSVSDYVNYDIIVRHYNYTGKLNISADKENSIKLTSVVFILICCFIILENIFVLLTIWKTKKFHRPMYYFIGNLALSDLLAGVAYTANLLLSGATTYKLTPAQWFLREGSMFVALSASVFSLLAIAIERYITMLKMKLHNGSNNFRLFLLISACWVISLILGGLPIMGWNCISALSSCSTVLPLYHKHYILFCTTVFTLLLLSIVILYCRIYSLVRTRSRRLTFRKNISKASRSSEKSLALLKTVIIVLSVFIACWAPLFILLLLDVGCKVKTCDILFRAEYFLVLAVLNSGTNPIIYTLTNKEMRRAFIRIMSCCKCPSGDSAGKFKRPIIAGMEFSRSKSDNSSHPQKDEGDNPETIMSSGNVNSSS

SMILES	IC50
COc1ccc(C(C)Nc2cccc(-c3cc(C)c(C(=O)N[C@@H](C)C(=O)O)c(C)c3)c2)cc1Cl (stereo partly drawn) [Example 1, (S)-2-({3′-[1-(3-Chloro-4-methoxy-phenyl)-ethylamino]-3,5-dimethyl-biphenyl-4-carbonyl}-amino)-propionic acid]	2 nM
CCC(Nc1cccc(-c2cc(C)c(C(=O)N[C@@H](C)C(=O)O)c(C)c2)c1)c1ccc(Cl)c(C)c1 (stereo partly drawn) [Example 5, (S)-2-({3′-[1-(4-Chloro-3-methyl-phenyl)-propylamino]-3,5-dimethyl-biphenyl-4-carbonyl}-amino)-propionic acid]	2 nM
Cc1cc(-c2cccc(NC(C)c3ccc(Cl)c(Cl)c3)c2)cc(C)c1C(=O)N[C@@H](C)C(=O)O (stereo partly shown) [Example 10]	2 nM
COc1cc(C(C)Nc2cccc(-c3cc(C)c(C(=O)N[C@@H](C)C(=O)O)c(C)c3)c2)ccc1F (stereo partly drawn) [Example 15, (S)-2-({3′-[1-(4-Fluoro-3-methoxy-phenyl)-ethylamino]-3,5-dimethyl-biphenyl-4-carbonyl}-amino)-propionic acid]	2 nM
Cc1cc(C(C)Nc2cccc(-c3cc(C)c(C(=O)N[C@@H](CO)C(=O)O)c(C)c3)c2)ccc1Cl (stereo partly drawn) [Example 21, (S)-2-({3′-[1-(4-Chloro-3-methyl-phenyl)-ethylamino]-3,5-dimethyl-biphenyl-4-carbonyl}-amino)-3-hydroxy-propionic acid]	2 nM
CCC(Nc1cccc(-c2cc(C)c(C(=O)NC3(C(=O)O)CC3)c(C)c2)c1)c1ccc(Cl)c(C)c1 (stereo not shown) [Example 27, 1-({3′-[1-(4-Chloro-3-methyl-phenyl)-propylamino]-3,5-dimethyl-biphenyl-4-carbonyl}-amino)-cyclopropanecarboxylic acid]	2 nM
Cc1cc(C)cc(C(C)Nc2cccc(-c3cc(C)c(C(=O)N[C@@H](C)C(=O)O)c(C)c3)c2)c1 (stereo partly drawn) [Example 28, (S)-2-({3′-[1-(3,5-Dimethyl-phenyl)-ethylamino]-3,5-dimethyl-biphenyl-4-carbonyl}-amino)-propionic acid]	3 nM
Cc1cc(C(C)Nc2cccc(-c3cc(C)c(C(=O)N[C@@H](C)C(=O)O)c(C)c3)c2)cc(C)c1Cl (stereo partly drawn) [Example 29, (S)-2-({3′-[1-(4-Chloro-3,5-dimethyl-phenyl)-ethylamino]-3,5-dimethyl-biphenyl-4-carbonyl}-amino)-propionic acid]	2 nM
COc1ccc(C(C)Nc2cccc(-c3cc(C)c(C(=O)N[C@@H](C)C(=O)O)c(C)c3)c2)c(F)c1 (stereo partly drawn) [Example 35, (S)-2-({3′-[1-(2-Fluoro-4-methoxy-phenyl)-ethylamino]-3,5-dimethyl-biphenyl-4-carbonyl}-amino)-propionic acid]	8 nM
Cc1cc([C@@H](C)Nc2cccc(-c3ccc(C(=O)N[C@@H](C)C(=O)O)c(C)c3)c2)ccc1Cl [Example 40, (S)-2-({3′-[(R)-1-(4-Chloro-3-methyl-phenyl)-ethylamino]-3-methyl-biphenyl-4-carbonyl}-amino)-propionic acid]	2 nM
CCc1cc(-c2cccc(NC(C)c3ccc(Cl)c(C)c3)c2)ccc1C(=O)N[C@@H](C)C(=O)O (stereo partly drawn) [Example 42, (S)-2-({3′-[1-(4-Chloro-3-methyl-phenyl)-ethylamino]-3-ethyl-biphenyl-4-carbonyl}-amino)-propionic acid]	3 nM
CCc1cc(-c2cccc(NC(C)c3ccc(Cl)c(C)c3)c2)ccc1C(=O)N(C)[C@@H](C)C(=O)O (stereo partly drawn) [Example 43, (S)-2-({3′-[1-(4-Chloro-3-methyl-phenyl)-ethylamino]-3-ethyl-biphenyl-4-carbonyl}-methyl-amino)-propionic acid]	3 nM
CCc1cc(-c2cccc(NC(C)c3cc(C)c(Cl)c(C)c3)c2)ccc1C(=O)N(C)[C@@H](C)C(=O)O (stereo partly drawn) [Example 45, (S)-2-({3′-[1-(4-Chloro-3,5-dimethyl-phenyl)-ethylamino]-3-ethyl-biphenyl-4-carbonyl}-methyl-amino)-propionic acid]	5 nM
Cc1cc(C(C)Nc2cccc(-c3ccc(C(=O)N(C)[C@@H](C)C(=O)O)c(Cl)c3)c2)ccc1Cl (stereo partly drawn) [Example 47, (S)-2-({3-Chloro-3′-[1-(4-chloro-3-methyl-phenyl)-ethylamino]-biphenyl-4-carbonyl}-methyl-amino)-propionic acid]	2 nM
Cc1cc(C(C)Nc2cccc(-c3cc(F)c(C(=O)N(C)[C@@H](C)C(=O)O)c(F)c3)c2)ccc1Cl (stereo partly drawn) [Example 51, (S)-2-({3′-[1-(4-Chloro-3-methyl-phenyl)-ethylamino]-3,5-difluoro-biphenyl-4-carbonyl}-methyl-amino)-propionic acid]	6 nM

More lines, in order of falling IC50, values ahead:

IC50	SMILES
5 nM	Cc1cc(C(C)Nc2cccc(-c3cc(C)c(C(=O)N[C@@H](C)C(=O)O)c(C)c3)c2)c(C)cc1Cl (stereo partly drawn) [Example 13, (S)-2-({3′-[1-(4-Chloro-2,5-dimethyl-phenyl)-ethylamino]-3,5-dimethyl-biphenyl-4-carbonyl}-amino)-propionic acid]
5 nM	Cc1cc(-c2cccc(NC(C)c3ccc(F)c(OC(F)(F)F)c3)c2)cc(C)c1C(=O)N[C@@H](C)C(=O)O (stereo partly drawn) [Example 17, (S)-2-({3′-[1-(4-Fluoro-3-trifluoromethoxy-phenyl)-ethylamino]-3,5-dimethyl-biphenyl-4-carbonyl}-amino)-propionic acid]
4 nM	Cc1ccc(C(C)Nc2cccc(-c3cc(C)c(C(=O)N[C@@H](C)C(=O)O)c(C)c3)c2)cc1C (stereo partly drawn) [Example 11, (S)-2-({3′-[1-(3,4-Dimethylphenyl)-ethylamino]-3,5-dimethyl-biphenyl-4-carbonyl}-amino)-propionic acid]
4 nM	Cc1cc(-c2cccc(NC(C)c3ccc(Cl)c(C(F)(F)F)c3)c2)cc(C)c1C(=O)N[C@@H](C)C(=O)O (stereo partly shown) [Example 14]
4 nM	COc1ccc(C(C)Nc2cccc(-c3cc(C)c(C(=O)N[C@@H](C)C(=O)O)c(C)c3)c2)cc1F (stereo partly drawn) [Example 18, (S)-2-({3′-[1-(3-Fluoro-4-methoxy-phenyl)-ethylamino]-3,5-dimethyl-biphenyl-4-carbonyl}-amino)-propionic acid]
3 nM	Cc1cc(-c2cccc(NC(C)c3ccc(Cl)c(F)c3)c2)cc(C)c1C(=O)N[C@@H](C)C(=O)O (stereo partly drawn) [Example 9, (S)-2-({3′-[1-(4-Chloro-3-fluoro-phenyl)-ethylamino]-3,5-dimethyl-biphenyl-4-carbonyl}-amino)-propionic acid]
3 nM	COc1c(F)cc(C(C)Nc2cccc(-c3cc(C)c(C(=O)N[C@@H](C)C(=O)O)c(C)c3)c2)cc1F (stereo partly drawn) [Example 34, (S)-2-({3′-[1-(3,5-Difluoro-4-methoxy-phenyl)-ethylamino]-3,5-dimethyl-biphenyl-4-carbonyl}-amino)-propionic acid]
3 nM	Cc1cc(C(C)Nc2cccc(-c3ccc(C(=O)N(C)[C@@H](C)C(=O)O)c(F)c3)c2)ccc1Cl (stereo partly drawn) [Example 49, (S)-2-({3′-[1-(4-Chloro-3-methyl-phenyl)-ethylamino]-3-fluoro-biphenyl-4-carbonyl}-methyl-amino)-propionic acid]
3 nM	Cc1cc(C(C)Nc2cccc(-c3cc(F)c(C(=O)N[C@@H](C)C(=O)O)c(F)c3)c2)ccc1Cl (stereo partly drawn) [Example 50, (S)-2-({3′-[1-(4-Chloro-3-methyl-phenyl)-ethylamino]-3,5-difluoro-biphenyl-4-carbonyl}-amino)-propionic acid]
2 nM	Cc1cc(C(C)Nc2cccc(-c3cc(C)c(C(=O)N[C@@H](C)C(=O)O)c(C)c3)c2)c(F)cc1Cl (stereo partly drawn) [Example 16, (S)-2-({3′-[1-(4-Chloro-2-fluoro-5-methyl-phenyl)-ethylamino]-3,5-dimethyl-biphenyl-4-carbonyl}-amino)-propionic acid]
2 nM	Cc1cc(F)cc(C(C)Nc2cccc(-c3cc(C)c(C(=O)N[C@@H](C)C(=O)O)c(C)c3)c2)c1 (stereo partly drawn) [Example 19, (S)-2-({3′-[1-(3-Fluoro-5-methyl-phenyl)-ethylamino]-3,5-dimethyl-biphenyl-4-carbonyl}-amino)-propionic acid]
2 nM	COc1ccc(C(C)Nc2cccc(-c3cc(C)c(C(=O)N[C@@H](C)C(=O)O)c(C)c3)c2)cc1C (stereo partly drawn) [Example 30, (S)-2-({3′-[1-(4-Methoxy-3-methyl-phenyl)-ethylamino]-3,5-dimethyl-biphenyl-4-carbonyl}-amino)-propionic acid]
2 nM	COc1c(F)cc(C(C)Nc2cccc(-c3cc(C)c(C(=O)N[C@@H](C)C(=O)O)c(C)c3)c2)cc1Cl (stereo partly drawn) [Example 36, (S)-2-({3′-[(3-Chloro-5-fluoro-4-methoxy-phenyl)-ethylamino]-3,5-dimethyl-biphenyl-4-carbonyl}-amino)-propionic acid]
2 nM	COc1c(C)cc(C(C)Nc2cccc(-c3cc(C)c(C(=O)N[C@@H](C)C(=O)O)c(C)c3)c2)cc1C (stereo partly drawn) [Example 37, (S)-2-({3′-[1-(4-Methoxy-3,5-dimethyl-phenyl)-ethylamino]-3,5-dimethyl-biphenyl-4-carbonyl}-amino)-propionic acid]
2 nM	Cc1cc(C(C)Nc2cccc(-c3ccc(C(=O)N[C@@H](C)C(=O)O)c(Cl)c3)c2)ccc1Cl (stereo partly drawn) [Example 46, (S)-2-({3-Chloro-3′-[1-(4-chloro-3-methyl-phenyl)-ethylamino]-biphenyl-4-carbonyl}-amino)-propionic acid]
1 nM	COc1ccc(C(C)Nc2cccc(-c3cc(C)c(C(=O)N[C@@H](C)C(=O)O)c(C)c3)c2)cc1C(F)(F)F (stereo partly drawn) [Example 33, (S)-2-({3′-[1-(4-Methoxy-3-trifluoromethyl-phenyl)-ethylamino]-3,5-dimethyl-biphenyl-4-carbonyl}-amino)-propionic acid]
